Drawing on patent US20220332726A1, “NITROXIDE DERIVATIVE OF ROCK KINASE INHIBITOR” (VIVAVISION (SHANGHAI) LTD, priority 2020, published 2022), this text covers IC50 for 24 compounds.

In general, IC50 refers to the concentration that inhibits the measured activity by half.

ROCK2, sequence (O75116 whole entry): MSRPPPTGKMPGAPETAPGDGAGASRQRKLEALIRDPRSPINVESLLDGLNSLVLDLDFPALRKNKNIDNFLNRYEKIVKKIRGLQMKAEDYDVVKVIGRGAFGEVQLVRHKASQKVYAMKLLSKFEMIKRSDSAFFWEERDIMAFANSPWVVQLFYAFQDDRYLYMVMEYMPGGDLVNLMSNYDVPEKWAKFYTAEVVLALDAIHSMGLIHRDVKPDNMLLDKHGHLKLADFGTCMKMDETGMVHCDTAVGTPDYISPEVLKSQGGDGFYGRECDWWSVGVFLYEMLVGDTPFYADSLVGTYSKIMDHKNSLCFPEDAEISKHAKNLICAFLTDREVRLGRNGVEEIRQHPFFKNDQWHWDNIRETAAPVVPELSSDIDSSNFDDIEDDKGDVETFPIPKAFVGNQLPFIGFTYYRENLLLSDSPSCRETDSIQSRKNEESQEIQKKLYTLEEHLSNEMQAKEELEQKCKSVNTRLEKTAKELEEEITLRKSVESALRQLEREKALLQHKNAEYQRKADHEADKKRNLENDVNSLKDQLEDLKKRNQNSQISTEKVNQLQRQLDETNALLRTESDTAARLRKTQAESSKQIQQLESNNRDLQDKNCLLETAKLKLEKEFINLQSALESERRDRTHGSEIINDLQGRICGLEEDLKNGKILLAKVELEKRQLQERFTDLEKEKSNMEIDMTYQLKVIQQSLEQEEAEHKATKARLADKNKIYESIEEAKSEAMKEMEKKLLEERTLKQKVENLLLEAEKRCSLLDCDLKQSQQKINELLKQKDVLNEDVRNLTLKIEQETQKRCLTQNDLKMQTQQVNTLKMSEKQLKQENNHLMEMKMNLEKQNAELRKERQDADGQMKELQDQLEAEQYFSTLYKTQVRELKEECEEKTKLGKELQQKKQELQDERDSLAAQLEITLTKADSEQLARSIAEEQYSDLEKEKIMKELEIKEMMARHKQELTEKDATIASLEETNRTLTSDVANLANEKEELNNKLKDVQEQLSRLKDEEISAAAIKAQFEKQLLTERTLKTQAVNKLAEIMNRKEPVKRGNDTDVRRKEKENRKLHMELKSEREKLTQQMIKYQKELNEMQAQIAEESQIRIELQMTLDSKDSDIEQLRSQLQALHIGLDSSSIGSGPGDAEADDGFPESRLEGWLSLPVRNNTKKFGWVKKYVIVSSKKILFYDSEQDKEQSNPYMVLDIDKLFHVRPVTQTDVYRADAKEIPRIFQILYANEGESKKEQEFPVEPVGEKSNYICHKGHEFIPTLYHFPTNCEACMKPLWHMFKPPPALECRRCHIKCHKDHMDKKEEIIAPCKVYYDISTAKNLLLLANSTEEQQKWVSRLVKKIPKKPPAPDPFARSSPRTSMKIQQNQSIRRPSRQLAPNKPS

This assay concerns the target ROCK2 (Homo sapiens, UniProt O75116). Briefly: ROCK2 kinase inhibitor activity test (HTRF). Format: biochemical. As to conditions: ROCK2 1 nM, substrate 500 nM, ATP 6 uM, 1.5 hours at room temperature, read-out: ROCK2 kinase inhibitor activities (IC50). The protocol: ROCK2 Kinase Inhibitor Activity Test
1) 4× ROCK2 reaction solution, 4×ATP reaction solution, 4× substrate solution, and 4× compound solution were prepared according to experimental requirements.
2) 2.5 μL of 4× kinase solution and 2.5 μL of diluted 4× test compound solutions with different concentration gradients were added to a 384-well plate. 2 replicate wells were provided for each concentration, and an enzyme solution blank control group and a negative control group (DMSO group) were provided at the same time. Centrifugation was performed at 1000 rpm for 1 minute, and the enzyme and the compounds were mixed. 2.5 μL of 4× substrate solution was added to the 384-well plate, centrifugation was performed at 1000 rpm for 1 minute, 2.5 μL of 4× ATP solution was added to the 384-well plate, centrifugation was performed at 1000 rpm for 1 minute to start the enzyme reaction, and incubation was performed at room temperature for 1.5 hours.
The final concentration of each component of the ROCK2 reaction was: ROCK2: 1 nM, substrate: 500 nM, ATP: 6 uM, and the final concentration range of the test compounds was: 100 nM to 5 pM.
3) 4× Streptavidin-XL-665 detection solution was prepared according to experimental requirements.
4) After the enzyme reaction was completed, 5 ul of 4× Streptavidin-XL-665 detection solution was added to each well of the 384-well plate, and centrifugation was performed at 1000 rpm for 1 minute. 5 μL of 4×STK Antibody-cryptate detection antibody solution was added to each well of the 384-well plate, centrifugation was performed at 1000 rpm for 1 minute, and incubation was performed for 1 hour at room temperature.
5) After antibody incubation was completed, the signal value of each well was measured by the HTRF program on an Envision plate reader.
1) Taking the enzyme solution blank control group as 100% inhibition rate and the negative control group (DMSO group) as 0% inhibition rate, the percentage inhibition rate corresponding to each concentration of the test compound was calculated.
2) In the GraphPad Prism software, a nonlinear regression analysis was performed on the logarithm of the concentrations of the test compounds and the corresponding percentage inhibition rates to obtain the half-inhibitory concentrations (IC50) of the test compounds.
The ROCK2 kinase inhibitor activities (IC50) of the compounds detected by this method are as follows: […]
As for `NC[C@@H](C(=O)Nc1cc2ccncc2s1)c1ccc(COC(=O)CC2(CO[N+](=O)[O-])CC2)cc1` [Example 29, (S)-4-(3-amino-1-oxy-1-(thieno[2,3-c]pyridin-2-ylamino)prop-2-yl)benzyl 2-(1-((nitrooxy)methyl)cyclopropyl acetate], the IC50 came to 2.74 nM.

For `NCC(C(=O)Nc1ccc2cnccc2c1)c1ccc(CO[N+](=O)[O-])cc1` (stereo not drawn) [Example 2, (3-amino-1-(isoquinolin-6-ylamino)-1-oxoprop-2-yl)benzyl nitrate], the 50% inhibitory concentration (IC50) came to 5.59 nM.

Regarding `NC[C@@H](C(=O)Nc1cc2c(F)cncc2s1)c1ccc(CO[N+](=O)[O-])cc1` [Example 12, (S)-4-(3-amino-1-((4-fluorothieno[2,3-c]pyridin-2-yl)amino)-1-oxoprop-2-yl)benzyl nitrate], the IC50 was found to be 2.95 nM. As for `NC[C@@H](C(=O)Nc1cc2ccncc2s1)c1ccc(COC(=O)c2ccc(CCO[N+](=O)[O-])cc2)cc1` [Example 16, (S)-4-(3-amino-1-oxy-1-(thieno[2,3-c]pyridin-2-ylamino)prop-2-yl)benzyl 4-(2-(nitrooxy)ethyl)benzoate], the IC50 worked out at 1.86 nM. For the compound `NC[C@@H](C(=O)Nc1cc2ccncc2s1)c1ccc(COC(=O)C2C[C@@H](O[N+](=O)[O-])[C@H](O[N+](=O)[O-])C2)cc1` [Example 37, (3R,4R)-4-((S)-3-amino-1-oxy-1-(thieno[2,3-c]pyridin-2-ylamino)propan-2-yl)benzyl 3,4-bis(nitrooxy)cyclopentane carboxylate], the IC50 was 1.43 nM. As for `NC[C@@H](C(=O)Nc1cc2ccncc2s1)c1ccc(COC(=O)C2(CO[N+](=O)[O-])CC2)cc1` [Example 32, (S)-4-(3-amino-1-oxy-1-(thieno[2,3-c]pyridin-2-ylamino)propan-2-yl)benzyl 1-((nitrooxy)methyl)cyclopropane carboxylate], the half-inhibitory concentration (IC50) turned out to be 3.11 nM. As to `NCC(C(=O)Nc1cc2ccncc2s1)c1ccc(OC(CO[N+](=O)[O-])CO[N+](=O)[O-])cc1` (stereo not drawn) [Example 14, 2-(4-(3-amino-1-oxo-1-(thieno[2,3-c]pyridin-2-ylamino)propan-2-yl)phenoxy)propane-1,3-dinitrate], the IC50 came to 77.3 nM. As to `NC[C@@H](C(=O)Nc1cc2ccncc2s1)c1ccc(COC(=O)c2ccc(CO[N+](=O)[O-])cc2)cc1` [Example 22, (S)-4-(3-amino-1-oxo-1-(thieno[2,3-c]pyridin-2-ylamino)prop-2-yl)benzyl 4-((nitrooxy)methyl)benzoate], the IC50 was determined as 1.6 nM. Consider `NC[C@@H](C(=O)Nc1cc2ccncc2s1)c1ccc(COC(=O)[C@H]2C[C@H](O[N+](=O)[O-])C2)cc1` [Example 25, 4-((S)-3-amino-1-oxo-1-(thieno[2,3-c]pyridin-2-ylamino)propan-2-yl)benzyl (1r,3S)-3-(nitrooxy)cyclobutane-1-carboxylate], for which the IC50 was 1.78 nM.

As for `NC[C@@H](C(=O)Nc1cc2ccncc2s1)c1ccc(COC(=O)C2CC(CO[N+](=O)[O-])C2)cc1` (stereo partly drawn) [Example 23, (S)-4-(3-amino-1-oxy-1-(thieno[2,3-c]pyridin-2-ylamino)propan-2-yl)benzyl 3-((nitrooxy)methyl)cyclobutane-1-carboxylate], the concentration for half-maximal inhibition (IC50) came to 1.13 nM.

Regarding `Cc1ccc(CCO[N+](=O)[O-])cc1C(=O)OCc1ccc([C@@H](CN)C(=O)Nc2cc3ccncc3s2)cc1` [Example 18], the IC50 turned out to be 4.62 nM. `NC[C@@H](C(=O)Nc1cc2ccncc2s1)c1ccc(COC(=O)CCCCCO[N+](=O)[O-])cc1` [Example 31, (S)-4-(3-amino-1-oxy-1-(thieno[2,3-c]pyridin-2-ylamino)propan-2-yl)benzyl 6-(nitrooxy)hexanoate]: the IC50 was 1.58 nM. In the case of `CC(CO[N+](=O)[O-])(CO[N+](=O)[O-])C(=O)OCc1ccc([C@@H](CN)C(=O)Nc2cc3ccncc3s2)cc1` [Example 26, (S)-4-(3-amino-1-oxo-1-(thieno[2,3-c]pyridin-2-ylamino)prop-2-yl)benzyl 2-methyl-3-(nitrooxy)-2-((nitrooxy)methyl)propionate], the IC50 is 9.9 nM. With `NC[C@@H](C(=O)Nc1cc2ccncc2s1)c1ccc(COC(=O)[C@H]2C[C@@H](CO[N+](=O)[O-])C2)cc1` [Example 34, (1S,3R)-4-((S)-3-amino-1-oxy-1-(thieno[2,3-c]pyridin-2-ylamino)propan-2-yl)benzyl 3-((nitrooxy)methyl)cyclobutane-1-carboxylate], the IC50 was found to be 1.04 nM. With `NC[C@@H](C(=O)Nc1cc2ccncc2s1)c1ccc(COC(=O)c2cccc(CCO[N+](=O)[O-])c2)cc1` [Example 28, (S)-4-(3-amino-1-oxy-1-(thieno[2,3-c]pyridin-2-ylamino)prop-2-yl)benzyl 3-(2-(nitrooxy)ethyl)benzoate] the figure was 1.32 nM.

For `NCC(C(=O)Nc1cc2ccncc2s1)c1ccc(C(CO[N+](=O)[O-])O[N+](=O)[O-])cc1` (stereo not drawn) [Example 5, 1-(4-(3-amino-1-oxo-1-(thieno[2,3-c]pyridin-2-ylamino)prop-2-yl)phenyl)ethane-1,2-dinitrate], the IC50 came out at 19.2 nM. With `NC[C@@H](C(=O)Nc1cc2ccncc2s1)c1ccc(COC(=O)C2CC(O[N+](=O)[O-])C2)cc1` (stereo partly drawn) [Example 6], the IC50 was 1.3 nM. On to `NC[C@@H](C(=O)Nc1cc2ccncc2s1)c1ccc(COC(=O)C2CC(CO[N+](=O)[O-])(CO[N+](=O)[O-])C2)cc1` [Example 36, (S)-4-(3-amino-1-oxy-1-(thieno[2,3-c]pyridin-2-ylamino)prop-2-yl)benzyl 3,3-bis((nitrooxy)methyl)cyclobutane-1-carboxylate], for which the 50% inhibitory concentration (IC50) was 32.5 nM. As for `CC(C)(CCCO[N+](=O)[O-])C(=O)OCc1ccc([C@@H](CN)C(=O)Nc2cc3ccncc3s2)cc1` [Example 30, (S)-4-(3-amino-1-oxy-1-(thieno[2,3-c]pyridin-2-ylamino)prop-2-yl)benzyl 2,2-dimethyl-5-(nitrooxy)valerate], the IC50 was determined as 16.5 nM. The figure for `NC[C@@H](C(=O)Nc1cc2ccncc2s1)c1ccc(COC(=O)C2CCC(O[N+](=O)[O-])CC2)cc1` (stereo partly drawn) [Example 15, (S)-4-(3-amino-1-oxy-1-(thieno[2,3-c]pyridin-2-ylamino)prop-2-yl)benzyl 4-(nitrooxy)cyclohexane-1-carboxylic acid] is 1.63 nM.

With `NC[C@@H](C(=O)Nc1cc2ccncc2s1)c1ccc(COC(=O)c2cccc(CO[N+](=O)[O-])c2)cc1` [Example 21, (S)-4-(3-amino-1-oxo-1-(thieno[2,3-c]pyridin-2-ylamino)prop-2-yl)benzyl 3-((nitrooxy)methyl)benzoate], the IC50 amounted to 1.23 nM. As for “4-((S)-3-amino-1-oxy-1-(thieno[2,3-c]pyridin-2-ylamino)prop-2-yl)benzyl(1s,4R)-4-((nitrooxy)methyl)cyclohexane-1-carboxylic acid [Example 27]”, the IC50 amounted to 4.62 nM. Take `CN(C)C[C@@H](C(=O)Nc1cc2ccncc2s1)c1ccc(COC(=O)C(C)(CO[N+](=O)[O-])CO[N+](=O)[O-])cc1` [Example 40, (S)-4-(3-(dimethylamino)-1-oxo-1-(thieno[2,3-c]pyridin-2-ylamino)propan-2-yl)benzyl 2-methyl-3-(nitrooxy)-2-((nitrooxy)methyl)propionate]: the IC50 was 2.05 nM.

For the compound `NC[C@@H](C(=O)Nc1cc2ccncc2s1)c1ccc(COC(=O)[C@@H]2CCCN2CCO[N+](=O)[O-])cc1` [Example 39], the IC50 worked out at 29.2 nM.
